Paper PMC12586182 (Frontiers in Oncology, 2025)

Legend:
Assay in all cases: Cell viability assay (ATPlite)
Assay type in all cases: cell-based
769-P = conditions: Homo sapiens; 769-P cell line, 72 hours incubation
Outline: (§1)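 Cells grew 24 h, then received 9-point √10-fold compound series in duplicate (0.4% DMSO final) for 72 h. ATP content was read by ATPlite luminescence and normalized to vehicle controls as % viability. IC50 came from a four-parameter logistic fit; curves with F-value above 1.5 were invalidated, with IC50 then set at the top concentration.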

A-388 = conditions: Homo sapiens; A-388 cell line, 72 hours incubation
Outline: as §1

A-704 = conditions: Homo sapiens, A704; A-704 cell line, 72 hours incubation
Outline: as §1

BL-70 = conditions: Homo sapiens; BL-70 cell line, 72 hours incubation
Outline: as §1

CAL-27 = conditions: Homo sapiens; CAL-27 cell line, 72 hours incubation
Outline: as §1

COLO 205 = conditions: Homo sapiens; COLO 205 cell line, 72 hours incubation
Outline: as §1

COLO 829 = conditions: Homo sapiens; COLO 829 cell line, 72 hours incubation
Outline: as §1

G-361 = conditions: Homo sapiens; G-361 cell line, 72 hours incubation
Outline: as §1

HEC-1 = conditions: Homo sapiens; HEC-1 cell line, 72 hours incubation
Outline: as §1

HT = conditions: Homo sapiens; HT cell line, 72 hours incubation
Outline: as §1

JM-1 = conditions: Homo sapiens, JM1; JM-1 cell line, 72 hours incubation
Outline: as §1

KMS-11 = conditions: Homo sapiens; KMS-11 cell line, 72 hours incubation
Outline: as §1

LS174T = conditions: Homo sapiens; LS174T cell line, 72 hours incubation
Outline: as §1

MCF-7 = conditions: Homo sapiens, MCF7; MCF-7 cell line, 72 hours incubation
Outline: as §1

MDA-MB-231 = conditions: Homo sapiens; MDA-MB-231 cell line, 72 hours incubation
Outline: as §1

MDA-MB-453 = conditions: Homo sapiens; MDA-MB-453 cell line, 72 hours incubation
Outline: as §1

MDA-MB-468 = conditions: Homo sapiens; MDA-MB-468 cell line, 72 hours incubation
Outline: as §1

MM1.R = conditions: Homo sapiens, MM.1R; MM1.R cell line, 72 hours incubation
Outline: as §1

MOLT-4 = conditions: Homo sapiens; MOLT-4 cell line, 72 hours incubation
Outline: as §1

MeWo = conditions: Homo sapiens; MeWo cell line, 72 hours incubation
Outline: as §1

NCI-H460 = conditions: Homo sapiens; NCI-H460 cell line, 72 hours incubation
Outline: as §1

RKO = conditions: Homo sapiens; RKO cell line, 72 hours incubation
Outline: as §1

SK-N-MC = conditions: Homo sapiens; SK-N-MC cell line, 72 hours incubation
Outline: as §1

SNU-C2B = conditions: Homo sapiens; SNU-C2B cell line, 72 hours incubation
Outline: as §1

SR = conditions: Homo sapiens; SR cell line, 72 hours incubation
Outline: as §1

SW48 = conditions: Homo sapiens; SW48 cell line, 72 hours incubation
Outline: as §1

SW620 = conditions: Homo sapiens, SW-620; SW620 cell line, 72 hours incubation
Outline: as §1

SW626 = conditions: Homo sapiens; SW626 cell line, 72 hours incubation
Outline: as §1

SW948 = conditions: Homo sapiens; SW948 cell line, 72 hours incubation
Outline: as §1

THP-1 = conditions: Homo sapiens; THP-1 cell line, 72 hours incubation
Outline: as §1

TOV-112D = conditions: Homo sapiens, TOV112D; TOV-112D cell line, 72 hours incubation
Outline: as §1

`O=C(c1ccc(Oc2ccccc2)cc1Cl)c1c[nH]c2ncnc(N[C@@H]3CC[C@@H](CO)OC3)c12` [nemtabrutinib] gave an IC50 (769-P) of 4.01 µM, an IC50 (A-388) of 5.33 µM and an IC50 (A-704) of 16.3 µM. It also gave an IC50 (BL-70) of 0.498 µM, an IC50 (CAL-27) of 1.29 µM and an IC50 (COLO 205) of 0.654 µM. It also gave an IC50 (COLO 829) of 1.54 µM, an IC50 (G-361) of 1.08 µM and an IC50 (HEC-1) of 4.58 µM. The IC50 (HT) was > 31.6 µM, the IC50 (JM-1) was 23.8 µM and the IC50 (KMS-11) was 4.65 µM. It also gave an IC50 (LS174T) of 1.74 µM, an IC50 (MCF-7) of 12.1 µM and an IC50 (MDA-MB-231) of 2.59 µM. The IC50 (MDA-MB-453) was 5.32 µM, the IC50 (MDA-MB-468) was 6.25 µM and the IC50 (MM1.R) was 8.23 µM. The IC50 (MOLT-4) was 6.87 µM, the IC50 (MeWo) was 10.2 µM and the IC50 (NCI-H460) was 5.73 µM. It also gave an IC50 (RKO) of 1.22 µM, an IC50 (SK-N-MC) of 7.4 µM and an IC50 (SNU-C2B) of 2.92 µM. It also gave an IC50 (SR) of 9.15 µM, an IC50 (SW48) of 0.445 µM and an IC50 (SW620) of 2.45 µM. It also gave an IC50 (SW626) of 3.13 µM, an IC50 (SW948) of 3.57 µM and an IC50 (THP-1) of 1.55 µM. The IC50 (TOV-112D) was 2.76 µM.
